Measured values published in article PMC9504587, “Cytotoxic Drimane-Type Sesquiterpenes from Co-Culture of the Marine-Derived Fungi Aspergillus carneus KMM 4638 and Beauveria felina (=Isaria felina) KMM 4639” (Marine Drugs, 2022).
Values after ≈ are worked out from the molar mass of the structure shown. Like-named read-outs stand apart in the source and are kept apart here.

What was measured:
[1] = system: human prostate cancer PC-3; experiment: MTT cytotoxicity assay, PC-3 cells; assay type: cell-based; details: 24 h incubation, mean ± SEM
Procedure: (§1) PC-3, MCF-7, C6, and H9c2 cells were cultured in DMEM medium (Biolot, St. Petersburg, Russia) containing 10% fetal bovine serum (Biolot, St. Petersburg, Russia) and 1% penicillin/streptomycin (Biolot, St. Petersburg, Russia) at 37 °C in a humidified atmosphere with 5% (v/v) CO2. The Raji cells were cultured in RPMI-1640 medium (Biolot, St. Petersburg, Russia) containing 10% fetal bovine serum (Biolot, St. Petersburg, Russia) and 1% penicillin/streptomycin (Biolot, St. Petersburg, Russia) under the same conditions.
(§2) Initially, cells were incubated in culture flasks until subconfluent (~80%). For testing, the cells were seeded at concentrations of 5 × 10^3 cells/well (PC-3, MCF-7, Raji, and C6 cells) or 3 × 10^3 cells/well (H9c2 cells), and experiments were started after 24 h.
(§3) The in vitro cytotoxicity of individual substances was determined by the MTT method (3-(4,5-dimethylthiazol-2-yl)-2,5-diphenyltetrazolium bromide), according to the manufacturer’s instructions (Sigma-Aldrich, St. Louis, MO, USA).
(§4) Investigated compounds were dissolved in DMSO at a concentration of 10 mM.
(§5) The cells were treated with the investigated compounds for 24 h or 48 h, and MTT reagent was added to each well of the plate. The vehicle with DMSO at a concentration of 1% was used as a control. The absorbance of formed formazan was measured at λ = 570 nm using a Multiskan FC microplate photometer (Thermo Scientific, Waltham, MA, USA) and expressed in optical units (o.u.). The results are presented as % of viable cells relative to vehicle, and 50% inhibition concentration of cell viability (IC50) was calculated.

[2] = system: rat glioblastoma C6; experiment: MTT cytotoxicity assay, C6 cells; assay type: cell-based; details: 24 h incubation, mean ± SEM
Procedure: as §1, §2, §3, §4, §5

[3] = system: lymphoma L5178Y; design: method as in PMID 19778087; details: cited from earlier work
[4] = system: PC 12; design: method as in PMID 19778087; details: cited from earlier work
[5] = system: MCF-7 cells; experiment: Total caspase activity by flow cytometry (Muse multicaspase kit); assay type: cell-based, human; details: 10 µM, 48 h; control 4.7%
Procedure: The influence of the compounds on the percentage of live MCF-7 cells (caspase−/7-AAD−), live MCF-7 cells with caspase activity (caspase+/7-AAD−), dead MCF-7 cells with caspase activity […] MCF-7 cells (caspase−/7-AAD+) was measured by a Muse® multicaspase kit (Luminex, Austin, TX, USA). The kit utilizes a VAD-peptide derivatized with a fluorescent group called fluorescent-labeled inhibitor of caspases (FLICA). The peptide binds to activated caspases, resulting in a fluorescent signal proportional to the number of active caspases in the cell. Fluorescent dye 7-AAD was used as a dead cell marker in this assay.
After incubation, culture media were collected, and cells were washed twice with cold PBS and incubated in trypsin-EDTA solution for 1 min. The cell suspension was washed twice by centrifugation at 250× g for 4 min with cold PBS and then used for caspase activity detection by a Muse® multicaspase kit (caspases 1, 3, 4, 5, 6, 7, 8, and 9) in accordance with manufacturer’s instructions (Luminex, Austin, TX, USA). Fluorescence was measured with a Muse® cell analyzer (Luminex, Austin, TX, USA), and data were processed by Muse 1.5 analysis software (Luminex, Austin, TX, USA).

[6] = system: HeLa cells; design: method as in PMID 19778087; details: cited from earlier work
[7] = system: human leukemia HL-60 cells; design: method as in PMID 19769341; details: read-out: IC50, HL-60 cell viability; cited from earlier work
[8] = system: human lung cancer A549 cells; design: method as in PMID 19769341; details: cited from earlier work
[9] = system: human breast cancer MCF-7; experiment: MTT cytotoxicity assay, MCF-7 cells; assay type: cell-based
Procedure: as §1, §2, §3, §4, §5

[10] = system: human lymphoma Raji; experiment: MTT cytotoxicity assay, Raji cells; assay type: cell-based; details: 24 h incubation, mean ± SEM
Procedure: as §1, §2, §3, §4, §5

[11] = target: SHP2; design: method as in earlier work; details: cell-free assay; cited from earlier work
[12] = system: MCF-7 cells; experiment: Apoptosis profile by flow cytometry (Muse annexin V and dead cell kit); assay type: cell-based, human; details: 10 µM, 48 h
Procedure: After incubation, culture media were collected; then, cells were washed twice with cold PBS and incubated with trypsin-EDTA solution for 1 min. The cell suspension was washed twice by centrifugated at 250× g for 4 min with cold PBS and used for apoptosis detection by a Muse® annexin V and dead cell kit in accordance with manufacturer’s instructions (Luminex, Austin, TX, USA). Fluorescence was measured with a Muse® cell analyzer (Luminex, Austin, TX, USA), and data were processed by Muse 1.5 analysis software (Luminex, Austin, TX, USA). The proportion of apoptotic cells was expressed as a percentage.

[13] = system: normal rat cardiomyocyte H9c2 cell line; experiment: MTT cytotoxicity assay, H9c2 cells; assay type: cell-based; details: 24 h incubation, mean ± SEM
Procedure: as §1, §2, §3, §4, §5

[14] = system: MCF-7 cells; experiment: Cell cycle analysis by flow cytometry (propidium iodide); assay type: cell-based, human; details: 10 µM, 48 h
Procedure: After incubation, cells were trypsinized, harvested, washed with PBS, and fixed with ice-cold 70% ethanol in a dropwise manner prior to storage at −20 °C overnight. The cells were then washed with PBS, incubated with 200 μg/mL RNAse (PanReac, AppliChem, Darmstadt, Germany) and 20 μg/mL of propidium iodide (Sigma-Aldrich, St. Louis, MO, USA) for 30 min at 37 °C, and the DNA content was analyzed with a Muse® cell analyzer (Luminex, Austin, TX, USA). The data were processed by Muse 1.5 analysis software (Luminex, Austin, TX, USA). The proportion of cells in each phase of the cell cycle was expressed as a percentage.

[15] = target: PTP1B; design: method as in earlier work; details: cell-free assay; cited from earlier work
[16] = system: H9c2, C6, PC-3, Raji and MCF-7 cells; experiment: MTT cytotoxicity, summary statements over several cell lines; assay type: cell-based; details: 24 h, range over both compounds and three cell lines
Procedure: as §3, §4, §5

[17] = system: murine leukemia P388 cells; design: method as in PMID 21628915; details: read-out: IC50, P388 cell viability; cited from earlier work
[18] = system: Ceratobasidium cornigerum; design: method as in PMID 32605151; details: cited from earlier work
[19] = system: Edwardsiella tarda; design: method as in PMID 32605151; details: cited from earlier work
[20] = system: human histiocytic lymphoma U937 cell line; design: method as in PMID 27936301; details: cited from earlier work
[21] = Homo sapiens, MCF7, 24 h, 24 h incubation, mean ± SEM, read-out: IC50, MCF-7

## CC1(C)CCC[C@@]2(C)[C@H]1[C@H](OC(=O)/C=C/C=C/C=O)C=C1COC(=O)[C@@]12O [Compound 9, ustusolate E]
[1]; Homo sapiens, PC-3, 24 h
  IC50: 50.1 ± 1.8 µM
[2]; Rattus norvegicus, C6, 24 h
  IC50: 54.3 ± 3.3 µM
[3]
  IC50: 1.6 µM
[4]
  IC50: 19.3 µM
[5]
  percentage of cells exhibiting caspase activity (living and 7-AAD-labeled): 12.4%
[6]
  IC50: 15.8 µM
[7]
  IC50: 8 µM
[8]
  toxicity against A549 cells: nontoxic
[9]; 10 µM, 48 h
  decrease in MCF-7 cell viability: ~50%
[9]; 48 h incubation, concentrations up to 10 µM, read-out: IC50, MCF-7 cell viability, prolonged incubation
  IC50: 10.1 ± 0.5 µM
[9]; [21]
  IC50: 57.8 ± 0.5 µM
[9]; Homo sapiens, MCF7, 48 h, 48 h incubation, concentrations up to 10 µM, read-out: IC50, MCF-7 cell viability, prolonged incubation
  IC50: 10 µM
[10]; Homo sapiens, Raji, 24 h
  IC50: 88.1 ± 1.3 µM
[11]
  IC50, SHP2 enzyme activity: 40 µg/mL (≈ 107 µM)
[12]; control 1.7%
  amount of apoptotic cells (early and late): 6.8%
[12]; control 98.6%
  amount of living cells: 94.1%
[13]; Rattus norvegicus, H9c2, 24 h
  IC50: 66.9 ± 3 µM
[14]; control 5.4%
  subG0 cells: 24.7%
[14]; relative to control
  decrease in the percentage of cells in the S phase: 41.2%
  increase of the percentage of cells in the G2/M phase: 67.3%
  reduction of the percentage of cells in the G0/G1 phase: 33.3%
[14]; versus control
  increase of the subG0 population of cells: 4.6 times
[15]
  IC50, PTP1B enzyme activity: 50 µg/mL (≈ 134 µM)
[16]
  IC50: 54.3 to 88.1 µM

## CC(O)C(=O)/C=C/C=C/C(=O)O[C@@H]1C=C2COC(=O)[C@]2(O)[C@@]2(C)CCCC(C)(C)[C@H]12 (stereo partly shown) [Compound 10, (6-strobilactone A) ester of (E,E)-6-carbonyl-7-hydroxy-2,4-octadienoic acid]
[1]; Homo sapiens, PC-3, 24 h
  IC50: 57.8 ± 1.1 µM
[2]; Rattus norvegicus, C6, 24 h
  IC50: > 100 µM
[17]
  IC50: 8.7 µM
[9]; [21]
  IC50: 55.1 ± 1.4 µM
[10]; Homo sapiens, Raji, 24 h
  IC50: 95.3 ± 0.8 µM
[13]; Rattus norvegicus, H9c2, 24 h
  IC50: 61.9 ± 0.5 µM

## CC(O)C(O)/C=C/C=C/C(=O)O[C@@H]1C=C2COC(=O)[C@]2(O)[C@@]2(C)CCCC(C)(C)[C@H]12 (stereo partly shown) [Compound 11, (6-strobilactone A) esters of (E,E)-6,7-dihydroxy-2,4-octadienoic acid]
[1]; Homo sapiens, PC-3, 24 h
  IC50: > 100 µM
[2]; Rattus norvegicus, C6, 24 h
  IC50: > 100 µM
[9]; [21]
  IC50: 83.5 ± 1.7 µM
[10]; Homo sapiens, Raji, 24 h
  IC50: 96.9 ± 1.6 µM
[13]; Rattus norvegicus, H9c2, 24 h
  IC50: > 100 µM

## CC(O)C(O)/C=C/C=C/C(=O)O[C@@H]1C=C2COC(=O)[C@]2(O)[C@@]2(C)CCCC(C)(C)[C@H]12 (stereo partly shown) [Compound 12, (6-strobilactone A) esters of (E,E)-6,7-dihydroxy-2,4-octadienoic acid]
[1]
  IC50: > 100 µM
[2]
  IC50: > 100 µM
[9]; 24 h incubation, mean ± SEM, read-out: IC50, MCF-7
  IC50: 81.7 ± 0.9 µM
[10]
  IC50: 97.5 ± 0.9 µM
[13]
  IC50: > 100 µM

## C=C(C)[C@H]1[C@H](OC(C)=O)C[C@H](C)[C@@]12CC=C(C)[C@@H](OC(=O)CCCCCCCC=CCC=CCCCCC)C2 [chermebilaene A]
[18]
  MIC, Ceratobasidium cornigerum: 0.5 µg/mL (≈ 0.925 µM)
[19]
  MIC, Edwardsiella tarda: 0.25 µg/mL (≈ 0.462 µM)

## aluminumneohydroxyaspergillin
[20]
  IC50: 4.2 µM
